How the values were obtained:
FLT3 = experiment: Western blot of FLT3 autophosphorylation and downstream signaling; format: cell-based, human
Description: Cells in logarithmic growth are resuspended in either plasma or RPMI 1640 media supplemented with either 10% FBS serum or physiologic concentrations of purified plasma proteins. The cells are cultured for 1 hour at 37° C. in the presence of drug(s) with intermittent shaking. The cells are then washed, lysed with RIPA buffer (Sigma) per manufacturer's protocol, and total cell lysates separated by sodium dodecyl sulfate polyacrylamide gel electrophoresis (Invitrogen) with Western transfer onto polyvinyl difluoride membranes (Millipore). The membranes are probed for FLT3 by using the S-18 antibody (Santa Cruz), or for other proteins using the indicated antibodies (Cell Signaling Technology), followed by horseradish peroxidase-conjugated goat anti-rabbit secondary antibodies with enhanced chemiluminescence detection (Bio-Rad).

MOLM-14 cells [1] = experiment: Modified plasma inhibition assay (PIA), MTT proliferation in 50% human plasma; format: cell-based; conditions: MOLM-14, 48 hours; for fold inhibition (increase in IC50) in the presence of 50% human plasma: MTT, 50% human plasma vs 10% FBS
Description: (§1) In the original plasma inhibitory assay (PIA), FLT3/ITD-expressing cells are co-incubated with plasma samples from patients receiving a FLT3 TKI, and Western blotting analysis of FLT3 auto-phosphorylation is used to measure the extent of FLT3 inhibitory activity present in their plasma.(9) This can then be compared to total plasma drug levels to determine the relative efficacy of a drug in vivo compared to its activity in vitro. […] To model these effects in the pre-clinical setting, we modified the PIA assay. Whereas the PIA was designed to assess in vivo drug activity with regards to a specific target (e.g.: inhibition of FLT3 auto-phosphorylation by TKI), the modified PIA is similarly cell-based, but measures the clinically relevant biological end-points of cytotoxicity and proliferation inhibition, instead of target inhibition. In the modified assay, FLT3/ITD cell lines are cultured in the presence of human plasma or purified human plasma proteins and treated with a range of concentrations of the drug of interest. […] Furthermore, like the original PIA, Western blot analysis can be performed on cells treated in this manner to study specific pathways of interest (FIG. 1B). […] The modified PIA utilizes the general endpoint of cytotoxicity.
Cells in logarithmic growth are resuspended in either human plasma or serum-free RPMI 1640 media supplemented with the plasma protein of interest and seeded in 96-well format at 50 μL per well. Cell density is 2×10^5 cells per well for MOLM-14 and Ba/F3-FLT3/ITD cells. To each well 50 μL of 2× drug dilution in RPMI 1640 media with 10% serum was added. Each condition is plated in quadruplicate. The cells are then incubated at 37° C. After 44 hours of treatment, 10 μL of 5 mg/mL thiazolyl blue tetrazolium bromide (MTT, Sigma) in PBS, sterile-filtered, is added to each well, and the plates are incubated for an additional 4 hours at 37° C. […] Optical absorbance at 570 nm is measured via plate reader (iMark, Bio-Rad), averaging across technical replicates.

MOLM-14 cells [2] = experiment: Modified PIA, MTT proliferation with purified human AGP; format: cell-based; conditions: for inhibition of TKI activity by purified human AGP: MOLM-14, purified human AGP at physiologic concentration (1 mg/mL), sub-physiologic also tested; for ability to displace TKI (TTT-3002, CEP-701) from AGP: MOLM-14, AGP 1.0 mg/mL, increasing doses of competitor, FIG. 13
Description: as §1
(§2) Where Δ is the fold-change in IC50, KA is the drug-protein association constant, P0 is the total protein concentration and PA is the drug-bound protein concentration. From this relationship, in the absence of other drug-protein interactions, fold-change is linearly related to drug-free protein concentration. […] When the analysis also takes into account drug-bound protein, these curves can be used to directly measure KA. To that end, we performed the modified PIA using purified AGP against the staurosporine-derived FLT3 TKI, using MOLM-14 cells (FIG. 4A). For comparison, we also assayed the anti-proliferative effects of non-specific protein kinase C inhibition by staurosporine itself in HL-60 cells (FLT3 wild-type AML).
Cells in logarithmic growth are resuspended in either human plasma or serum-free RPMI 1640 media supplemented with the plasma protein of interest and seeded in 96-well format at 50 μL per well. Cell density is 2×10^5 cells per well for MOLM-14 and Ba/F3-FLT3/ITD cells. To each well 50 μL of 2× drug dilution in RPMI 1640 media with 10% serum was added. Each condition is plated in quadruplicate. The cells are then incubated at 37° C. After 44 hours of treatment, 10 μL of 5 mg/mL thiazolyl blue tetrazolium bromide (MTT, Sigma) in PBS, sterile-filtered, is added to each well, and the plates are incubated for an additional 4 hours at 37° C. […] of 10% sodium dodecyl sulfate (JT Baker) in 10 mM hydrochloric acid (Fisher) is then added to each well, and the plates are incubated at 37° C. overnight. Optical absorbance at 570 nm is measured via plate reader (iMark, Bio-Rad), averaging across technical replicates.

AGP = AGP (Homo sapiens, UniProt P02763); conditions: reported value; cited from earlier work
Chain of AGP (P02763 19-201): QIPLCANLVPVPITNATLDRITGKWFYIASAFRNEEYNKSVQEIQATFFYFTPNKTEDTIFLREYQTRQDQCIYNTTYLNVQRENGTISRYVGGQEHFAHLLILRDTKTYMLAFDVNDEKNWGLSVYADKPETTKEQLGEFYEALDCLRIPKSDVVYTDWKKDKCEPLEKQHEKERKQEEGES

Ba/F3-FLT3/ITD-Luc cells = experiment: Ba/F3-FLT3/ITD-Luc engrafted mouse model with human AGP, bioluminescent imaging; format: in vivo, BALB/c mice; conditions: mifepristone by oral gavage during treatment, imaged day 9
Description: We transplanted sublethally-irradiated BALB/c mice with Ba/F3-FLT3/ITD-Luc cells (Ba/F3 cells expressing both FLT3/ITD and a luciferase reporter). […] Twenty-four hours after the final treatment (day 9), the mice were again imaged to assess response (FIG. 8C).
BALB/c mice were transplanted after 300 cGy of sublethal X-ray irradiation using a CIXD irradiator (Xstrahl). 5×10^5 Ba/F3-FLT3/ITD-Luc cells were injected via tail vein. Intraperitoneal injections were performed using PBS vehicle with human AGP (Sigma) at 20 mg/mL. […] Mifepristone (Sigma) was dissolved in 50% ethanol and 50% (2-hydroxypropyl)-□-cyclodextrin (Sigma) and administered by oral gavage every 48 hours. Mice were imaged by intraperitoneal injection of luciferin (3 mg) and visualizing on an IVIS Spectrum imager (Caliper LifeSciences) using Living Image software for analysis on day 5 (to monitor engraftment) and on day 9 (to assess drug effect).

HL-60 cells = experiment: Modified PIA with purified AGP, anti-proliferative effect of staurosporine; format: cell-based, human; conditions: HL-60 cells (FLT3 wild-type AML)
Excerpt: as §2
Cells in logarithmic growth are resuspended in either human plasma or serum-free RPMI 1640 media supplemented with the plasma protein of interest and seeded in 96-well format at 50 μL per well. Cell density is 2×10^5 cells per well for MOLM-14 and Ba/F3-FLT3/ITD cells. To each well 50 μL of 2× drug dilution in RPMI 1640 media with 10% serum was added. Each condition is plated in quadruplicate. The cells are then incubated at 37° C. […] Optical absorbance at 570 nm is measured via plate reader (iMark, Bio-Rad), averaging across technical replicates.

Structure (SMILES): CNC(=O)[C@@]1(N)C[C@H]2O[C@]1(C)n1c3ccccc3c3c4c(c5c6ccccc6n2c5c31)C(=O)NC4 [TTT-3002]
- inhibition of FLT3 phosphorylation in the presence of human plasma (FLT3; MOLM-14, 1 hour, TKI 10 nM and 100 nM, human plasma): significant decrease in inhibition of FLT3 phosphorylation
- effect of human plasma on IC50 (MOLM-14 cells [1]; 50% human plasma vs 10% fetal bovine serum): significantly increased the IC50
- fold inhibition (increase in IC50) in the presence of 50% human plasma (MOLM-14 cells [1]): 9 fold
- fold inhibition by AGP (fold-change in IC50) (MOLM-14 cells [2]; MOLM-14, purified AGP at physiologic concentrations): 30 fold
- inhibition of TKI activity by purified human AGP (MOLM-14 cells [2]): comparable inhibition to that observed with human plasma

Structure (SMILES): CN(C)CCC=C1c2ccccc2CCc2ccccc21 [amitriptyline]
- ability to displace TKI (TTT-3002, CEP-701) from AGP (MOLM-14 cells [2]): cannot displace the more tightly-bound TKI from AGP

Structure (SMILES): C[C@]12O[C@H](C[C@]1(O)CO)n1c3ccccc3c3c4c(c5c6ccccc6n2c5c31)CNC4=O [lestaurtinib]
- fold inhibition by AGP, predicted (MOLM-14 cells [2]; MOLM-14, purified AGP at physiologic concentrations, predicted): > 1000 fold
- shift in IC50 with human AGP (MOLM-14 cells [2]; human AGP): 500 fold

Structure (SMILES): CC#C[C@]1(O)CC[C@H]2[C@@H]3CCC4=CC(=O)CCC4=C3[C@@H](c3ccc(N(C)C)cc3)C[C@@]21C [mifepristone]
- KA (association constant with AGP) (AGP): 7 to 8 µM⁻¹
- restoration of FLT3 inhibition by TTT-3002 in the presence of AGP (FLT3; MOLM-14, TTT-3002 (2 nM), inhibiting AGP, increasing mifepristone): dose-dependent restoration of FLT3 inhibition
- effect of agent alone on FLT3 autophosphorylation or downstream signaling (FLT3; MOLM-14, mifepristone alone): no effect
- response of FLT3/ITD-expressing cells (bioluminescence), mifepristone added to midostaurin/AGP (Ba/F3-FLT3/ITD-Luc cells): regression of the transplanted cells at levels comparable to those of the midostaurin alone treated mice
- effect of agent alone on cell growth (MOLM-14 cells [2]; MOLM-14, concentrations of maximal disinhibiting effect): no appreciable effect on cell growth
- effect on TTT-3002 dose-response curve in the presence of purified AGP (MOLM-14 cells [2]; MOLM-14, increasing concentrations of mifepristone, TTT-3002 plus AGP): dose-response curve shifted back to that seen in the absence of AGP
- effect on TTT-3002 dose-response curves in the absence of AGP (MOLM-14 cells [2]; MOLM-14, no AGP): no impact

Structure (SMILES): CC(C)(C)c1cc(NC(=O)Nc2ccc(-c3cn4c(n3)sc3cc(OCCN5CCOCC5)ccc34)cc2)no1 [quizartinib]
- fold inhibition (increase in IC50) in the presence of 50% human plasma (MOLM-14 cells [1]): 37 fold
- inhibition of TKI activity by purified human AGP (MOLM-14 cells [2]): not significant inhibited

Structure (SMILES): CNC(=O)c1cc(Oc2ccc(NC(=O)Nc3ccc(Cl)c(C(F)(F)F)c3)cc2)ccn1 [sorafenib]
- inhibition of TKI activity by purified human AGP (MOLM-14 cells [2]): not significant inhibited

Structure (SMILES): CN[C@@H]1C[C@H]2O[C@@](C)([C@@H]1OC)n1c3ccccc3c3c4c(c5c6ccccc6n2c5c31)C(=O)NC4 [staurosporine]
- anti-proliferative activity in the presence of AGP (HL-60 cells): no appreciable activity in the presence of AGP until saturating concentrations of drug were used

Structure (SMILES): O=C1CCC(N2C(=O)c3ccccc3C2=O)C(=O)N1 (centres unmarked) [thalidomide]
- ability to displace TKI (TTT-3002, CEP-701) from AGP (MOLM-14 cells [2]): cannot displace the more tightly-bound TKI from AGP

Source: patent US20210154208A1, “Method to Identify Agents That Can Overcome Inhibition Caused By Drug-protein Binding of the Human Plasma Protein, Alpha-1-acid Glycoprotein” (The Johns Hopkins University, priority 2019, published 2021)
